Data taken from US20260184689A1, “PIPERIDINE-SUBSTITUTED BENZOIC ACID COMPOUND, AND PHARMACEUTICAL COMPOSITION AND USE THEREOF” (SHANGHAI YISHENG BIOPHARMACEUTICAL COMPANY LIMITED, priority 2022, published 2026).

Test system: Sheep Anti-Rat Fx1A Serum induced Heymann nephritis
Assay: In vivo efficacy assay of passive Heymann nephritis in rats
Conditions: male SD rats, intragastric twice a day for 14 days, 5, 20 and 60 mpk; LNP023 60 mpk
From the text: Experimental objective: To investigate the ability of the compounds of the present disclosure to improve renal function of Sheep Anti-Rat Fx1A Serum induced Heymann nephritis in rats, including the evaluation of reducing proteinuria level and improving renal tissue damage.
Experimental animals: Male SD rats, 7 to 10 weeks old, weighing between 200 to 300 g.
Urine was collected from rats on D-2 before administration. On D1, the first day of the experiment, animals in the control group (group 1) were administered 5 mL/kg of Sheep Non-Immune serum via a single tail vein injection; animals in the model and administration groups (groups 2 to 6) were administered 5 mL/kg of Sheep Anti-Rat Fx1A Serum via a single tail vein injection.
The rats were treated by intragastric administration twice a day with an interval of 8 hours and a volume of 10 mL/kg. On D1, 1 hour before modeling, animals in groups 1 and 2 were administered blank vehicle 20% PEG400/10% Solutol/70% water; animals in group 3 were administered LNP023 (60 mpk); animals in groups 4 to 6 were administered different concentrations of synthetic compounds (5 mpk, 20 mpk, and 60 mpk); 8 hours after the first administration, each group was administered again with the same dose and volume as the first administration. From D2 to D14, animals in each group were administered different compounds or vehicles for 14 consecutive days (including the first day) according to the dose, volume, administration method, and frequency on D1.
Urine collection: Urine samples were collected from rats on D-2 before administration, and 2 to 4 hours and 4 to 6 hours after the first administration on D4, D6, D8, D11, and D14 after administration, transferred to EP tubes and stored in a refrigerator at −80° C. to −60° C. for the detection of urine protein and creatinine in rats.
Kidney sample collection: All animals were euthanized with CO2 inhalation anesthesia on Day 15, and bilateral kidneys were collected. The left kidney was cut transversely, and the right kidney was cut longitudinally. Half of the transversely cut kidney (left side) and half of the longitudinally cut kidney (right side) were fixed in formalin (placed in the same EP tube).
4. […] Urine total protein (uTP) in rats was detected without dilution; if exceeding the upper detection limit, it was 10-fold diluted (10 μL of sample+90 μL of saline (0.9% saline)) first (Decrease mode); if still exceeding the upper detection limit after 10-fold dilution, it was 100-fold diluted (2 μL of sample+198 μL of saline (0.9% saline)) (Increase mode). Data were read by the analytical instrument HITACHI LST008AS(P). • (2) Kidney pathological scoring: The degree of drug damage to rat kidneys (paraffin sections) was analyzed by HE staining. […]

SMILES	performance in the kidney disease model through urine and kidney pathology analysis, compared with LNP023
CCCC1CCN(C(=O)c2c(OC)cc(C)c3[nH]ccc23)C(c2ccc(C(=O)O)cc2)C1 (single isomer, unassigned) [Compound 159A]	performed better
CCO[C@H]1CCN(Nc2c(OC)cc(C)c3[nH]ccc23)[C@H](c2ccc(C(=O)O)cc2)C1 [Compound 11 of Example 75, 4-((2S,4S)-4-Ethoxy-1-((5-methoxy-7-methyl-1H-indol-4-yl)amino)piperidin-2-yl)benzoic acid]	performed better
CCCC1CCN(C(=O)c2c(OC)cc(C)c3[nH]ccc23)[C@H](c2ccc(C(=O)O)cc2)C1 (mixture of isomers) [Final product of Example 158, 4-((2S)-1-(5-Methoxy-7-methyl-1H-indole-4-carbonyl)-4-propylpiperidin-2-yl)benzoic acid]	performed better
